Experimental data: patent US6211375A, “Pyridonecarboxylic acid derivatives or salts thereof and antibacterial agents containing the same as the active ingredient” (Wakunaga Pharmaceutical Co., Ltd., priority 1996, dated 2001)
Converted amounts (≈) assume the structure as drawn. Where two headings read alike, the source gives them in different places.

What was measured:
P. aeruginosa IFO3445 = experiment: Antibacterial Activity, minimum growth inhibitory concentration (MIC), P. aeruginosa IFO3445; assay type: cell-based; conditions: Pseudomonas aeruginosa, standard method of Japan Chemotherapy Society
Experimental: (§1) Minimum growth inhibitory concentration (MIC, μg/ml) was evaluated in accordance with the standard method of Japan Chemotherapy Society (Chemotherapy 29(1), 76, 1981). It should be noted that tosufloxacin was also evaluated for its minimum growth inhibitory concentration for the purpose of comparison.

ears = experiment: Phototoxicity Test (abnormality in the ears of mice after UVA irradiation); assay type: in vivo, Female ICR mice; conditions: 40 mg/kg i.v., UVA 320 to 400 nm, 4 hours; for ear abnormality, point: 0 = no abnormality, 1 = very slight erythema, 2 = well defined erythema, 3 = moderate to severe erythema or edema
Experimental: Female ICR mice (5 to 6 week old) were intravenously administered with the test compound (40 mg/kg/10 ml), and irradiated with UVA (320 to 400 nm, 1.8 mW/cm^2 /sec) for 4 hours. Abnormality in the ears was monitored at 0 hour immediately after the irradiation and after 24 hours. The ear abnormality was evaluated by the following criteria: no abnormality (0 point), very slight erythema (1 point), well defined erythema (2 points), moderate to severe erythema or edema formation (3 points). Tosufloxacin which is a conventional known antibacterial agent was also tested in a similar way for the purpose of comparison.

S.aureus 209P = experiment: Antibacterial Activity, minimum growth inhibitory concentration (MIC), S.aureus 209P; assay type: cell-based; conditions: Staphylococcus aureus, standard method of Japan Chemotherapy Society
Experimental: as §1

[1] = Absorption and Excretion (urine and bile recovery rates after oral administration); assay type: in vivo, Male SD rats; conditions: rat, 20 mg/kg, rats, oral 20 mg/10 ml/kg
Experimental: A compound of the present invention was measured for its urine and bile recovery rates in rats after its oral administration to evaluate absorption and excretion of the compounds.
Male SD rats of 6 week old which had been fasted overnight were administered orally with 0.5% methylcellulose suspension of the test compounds (20 mg/10 ml/kg). The urine collection was continued until 24 hours after the administration. The concentration of the test compound in the urine was measured by paper disc method using Bacillus subtilis ATCC6633 for the test bacterium to determine the urine recovery rate.
Into choledoch duct of male SD rats of 6 week old which had been fasted overnight was inserted a polyethylene tube under etherization. After arousing, the rats were forcedly administered orally with the test compounds as in the case of the above (1), and bile collection was continued until 24 hours after the administration. The bile with no further treatment and the bile alkaline hydrolyzed (with 0.1N NaOH, 37° C., 1 hour) were measured for their concentration of the test compound by the same procedure as in the case of the above (1) to determine the bile recovery rate.

MIC (P. aeruginosa IFO3445) [mg/L]	MIC (S.aureus 209P) [mg/L]	dose excreted at 24 h ([1]; bile, 0-24 hours, bile after alkaline hydrolysis (0.1N NaOH, 37° C., 1 hour), read-out: Recovery rate (24 hours), Bile*) [%]	dose excreted at 24 h ([1]; bile, 0-24 hours, bile with no further treatment, read-out: Recovery rate (24 hours), Bile) [%]	dose excreted at 24 h ([1]; urine and bile, 24 hours, total recovery rate, read-out: Recovery rate (24 hours), Total recovery rate) [%]	dose excreted at 24 h ([1]; urine, 0-24 hours, paper disc method with Bacillus subtilis ATCC6633, read-out: Recovery rate (24 hours), Urine) [%]	Compound	ear abnormality, occurrence (ears; 0 hour after irradiation)	ear abnormality, point (ears; 0 hour after irradiation) [point]	ear abnormality, occurrence (ears; 24 hours after irradiation)	ear abnormality, point (ears; 24 hours after irradiation) [point]
0.05 (≈ 0.12 µM)	0.006 (≈ 0.0143 µM)					Cc1c(N2CC(N)C2)c(F)cc2c(=O)c(C(=O)O)cn(-c3cc(N)c(F)cc3F)c12 [Compound of Ex. 1, 7-(3-aminoazetidin-1-yl)-1-(3-amino-4,6-difluorophenyl)-6-fluoro-8-methyl-1,4-dihydro-4-oxoguinoline-3-carboxylic Acid]	0/3	0	0/3	0
0.1 (≈ 0.23 µM)	0.013 (≈ 0.0299 µM)					Cc1c(N2CC(N)C2)c(F)cc2c(=O)c(C(=O)O)cn(-c3cc(N)c(F)cc3Cl)c12 [Compound of Ex. 7, 7-(3-aminoazetidin-1-yl)-1-(3-amino-6-chloro-4-fluorophenyl)-6-fluoro-8-methyl-1,4-dihydro-4-oxoguinoline-3-carboxylic Acid]	0/3	0	0/3	0
0.1 (≈ 0.241 µM)	0.003 (≈ 0.00724 µM)					Cc1cc(F)c(N)cc1-n1cc(C(=O)O)c(=O)c2cc(F)c(N3CC(N)C3)c(C)c21 [Compound of Ex. 4, 7-(3-aminoazetidin-1-yl)-1-(3-amino-4-fluoro-6-methylphenyl)-6-fluoro-8-methyl-1,4-dihydro-4-oxoguinoline-3-carboxylic Acid]	0/3	0	0/3	0
0.2 (≈ 0.477 µM)	0.006 (≈ 0.0143 µM)					Cc1c(N2CC(O)C2)c(F)cc2c(=O)c(C(=O)O)cn(-c3cc(N)c(F)cc3F)c12 [Compound of Ex. 8, 1-(3-amino-4,6-difluorophenyl)-6-fluoro-7-(3-hydroxyazetidin-1-yl)-8-methyl-4-oxo-1,4-dihydroquinoline-3-carboxylic Acid]	0/3	0	0/3	0
0.1 (≈ 0.231 µM)	0.003 (≈ 0.00694 µM)					Cc1c(F)c(N2CC(N)C2)c(C)c2c1c(=O)c(C(=O)O)cn2-c1cc(N)c(F)cc1F [Compound of Ex. 10, 7-(3-aminoazetidin-1-yl)-1-(3-amino-4,6-difluorophenyl)-6-fluoro-5,8-dimethyl-4-oxo-1,4-dihydroquinoline-3-carboxylic Acid]	0/3	0	0/3	0

The remaining lines, values behind:

Compound	MIC (P. aeruginosa IFO3445) [mg/L]	MIC (S.aureus 209P) [mg/L]	dose excreted at 24 h ([1]; bile, 0-24 hours, bile after alkaline hydrolysis (0.1N NaOH, 37° C., 1 hour), read-out: Recovery rate (24 hours), Bile*) [%]	dose excreted at 24 h ([1]; bile, 0-24 hours, bile with no further treatment, read-out: Recovery rate (24 hours), Bile) [%]	dose excreted at 24 h ([1]; urine and bile, 24 hours, total recovery rate, read-out: Recovery rate (24 hours), Total recovery rate) [%]	dose excreted at 24 h ([1]; urine, 0-24 hours, paper disc method with Bacillus subtilis ATCC6633, read-out: Recovery rate (24 hours), Urine) [%]	ear abnormality, occurrence (ears; 0 hour after irradiation)	ear abnormality, point (ears; 0 hour after irradiation) [point]	ear abnormality, occurrence (ears; 24 hours after irradiation)	ear abnormality, point (ears; 24 hours after irradiation) [point]
Cc1c(N2CC(C)(N)C2)c(F)cc2c(=O)c(C(=O)O)cn(-c3cc(N)c(F)cc3F)c12 [Compound of Ex. 3, 7-(3-amino-3-methylazetidin-1-yl)-1-(3-amino-4,6-difluorophenyl)-6-fluoro-8-methyl-1,4-dihydro-4-oxoguinoline-3-carboxylic Acid]	0.1 (≈ 0.231 µM)	0.006 (≈ 0.0139 µM)	26.7	10.4	30.6	3.9	0/3	0	0/3	0
Cc1cc(F)c(N)cc1-n1cc(C(=O)O)c(=O)c2cc(F)c(N3CC(C)(N)C3)c(C)c21 [Compound of Ex. 5, 7-(3-amino-3-methylazetidin-l-yl)-1-(3-amino-4-fluoro-6-methylphenyl)-6-fluoro-8-methyl-1,4-dihydro-4-oxoguinoline-3-carboxylic Acid]	0.2 (≈ 0.467 µM)	0.013 (≈ 0.0303 µM)					0/3	0	0/3	0
CNC1CN(c2c(F)cc3c(=O)c(C(=O)O)cn(-c4cc(N)c(F)cc4C)c3c2C)C1 [Compound of Ex. 6, 1-(3-amino-4-fluoro-6-methylphenyl)-6-fluoro-8-methyl-7-(3-methylaminoazetidin-1-yl)-1,4-dihydro-4-oxoguinoline-3-carboxylic Acid]	0.2 (≈ 0.467 µM)	0.013 (≈ 0.0303 µM)					0/3	0	0/3	0
CNC1CN(c2c(F)cc3c(=O)c(C(=O)O)cn(-c4cc(N)c(F)cc4F)c3c2C)C1 [Compound of Ex. 2, 1-(3-amino-4,6-difluorophenyl)-6-fluoro-8-methyl-7-(3-methylaminoazetidin-1-yl)-1,4-dihydro-4-oxoguinoline-3-carboxylic Acid]	0.1 (≈ 0.231 µM)	0.006 (≈ 0.0139 µM)					0/3	0	0/3	0
Cc1cc(F)c(N)cc1-n1cc(C(=O)O)c(=O)c2cc(F)c(N3CC(O)C3)c(C)c21 [Compound of Ex. 9, 1-(3-amino-4-fluoro-6-methylphenyl)-6-fluoro-7-(3-hydroxyazetidin-1-yl)-8-methyl-4-oxo-1,4-dihydroquinoline-3-carboxylic Acid]	0.2 (≈ 0.481 µM)	0.013 (≈ 0.0313 µM)					0/3	0	0/3	0
NC1CCN(c2nc3c(cc2F)c(=O)c(C(=O)O)cn3-c2ccc(F)cc2F)C1 (stereo not shown) [Tosufloxacin, reference compound]	0.39 (≈ 0.965 µM)	0.05 (≈ 0.124 µM)					4/5	1.8	4/5	0.8
